Data taken from patent US4708966A, “Novel anti-inflammatory agents, pharmaceutical compositions and methods for reducing inflammation” (The Procter & Gamble Company, priority 1986, dated 1987).

Key:
[1] = system: arachidonic acid-induced inflamed mouse ear; test: Arachidonic Acid-Induced Inflamed Mouse Ear Test; assay type: in vivo, Adult male Cox ICR mice
Procedure: Arachidonic Acid-Induced Inflamed Mouse Ear Test
All drugs are dissolved with arachidonic acid in the vehicle. At the end of 3 hours, animals are sacrificed by cervical dislocation and both ears are removed. A 5 mm punch biopsy is removed from both ears and is weighed to the nearest 0.1 mg on a Cahn electrobalance. Ten animals are used per group. The study usually consists of 4 to 6 groups, of which one is a control group which is treated on the left ear with only arachidonic acid in the vehicle. The results are expressed as percent inhibition of the swelling response compared to the control group. Statistical tests for significance between groups are made using a one way analysis of variance of the ear weight differences. ID50 values are determined by regression analysis.

cyclooxygenase ("COX") = test: inhibition of cyclooxygenase in arachidonic acid metabolism; assay type: biochemical
lipoxygenase ("LOX") = test: inhibition of lipoxygenase in arachidonic acid metabolism; assay type: biochemical
inflammation = test: anti-inflammatory activity in animal models of inflammation; assay type: in vivo
Procedure: In order to determine and assess pharmacological activity, testing of these compounds in animals is carried out using various assays known to those skilled in the art. […] Examples of such known tests include the carrageenan rat edema test, the oxazolone-induced inflamed mouse ear test, and the arachidonic acid-induced inflamed mouse ear test. Anti-pyretic acitivity may be tested using art-known rat models, and analgesic acitivty may be tested in art-known models such as the acetylcholine model in mice, the Randall-Selitto model in rats, and the hot-plate test in mice. Another useful art-known test is the adjuvant arthritis test which is a useful model for assessing anti-inflammatory activity and anti-resorptive activity in a chronic, rather than acute, model.
These and other appropriate tests for pharmacological activity are disclosed and/or referred to in U.S. Pat. No. 4,130,666, issued Dec. 19, 1978 to Moore; U.S. Pat. No. 4,440,784, issued Apr. 3, 1984 to Katsumi et al.; Japanese patent application No. 85/54315, published Mar. 28, 1985 by Katsumi et al.; European Patent Application Publication No. 59,090, published Sept. 1, 1982 by Yamanouchi Pharmaceutical Co., Ltd.; "Prostaglandin and Leukotriene Synthesis in Mouse Ears Inflamed by Arachidonic Acid", The Journal of Investigative Dermatology, 84, pp. 253-256 (1985); U.S. Pat. No. 4,431,656, issued Feb. […]

[2] = antioxidant and free radical scavenging activity
[3] = gastric damage / gastrointestinal irritation; assay type: in vivo; details: levels significantly greater than the therapeutic dose, test animals
[4] = toxicity (acute oral toxicity); assay type: in vivo; details: test animals

## C#CCCCC(=O)c1cc(C(C)(C)C)c(O)c(C(C)(C)C)c1 [Compound 11, 4-(5'-hexynoyl)-2,6-di-t-butylphenol]
[1]; Mus musculus, 50 ug/ear topical, 3 hours, read-out: Percent Inhibition at 50 ug/ear topical dose
  inhibition in vivo at 50 µg/ear: 43.9%
[1]; topical, by regression analysis
  ID50: 20.7 ug/ear
Cyclooxygenase ("COX")
  inhibition of cyclooxygenase (COX): dual inhibitor
Lipoxygenase ("LOX")
  inhibition of lipoxygenase (LOX): dual inhibitor
inflammation
  oral activity in several animal models of inflammation: very good oral activity
[2]
  antioxidant and free radical scavenging activity: antioxidant and free radical scavenging activity
[3]
  gastric damage after oral dosing: very low or no gastric damage
[4]
  acute oral toxicity: very low acute oral toxicity
